Tests used:
Format in all cases: cell-based
NIH/3T3 cells = test: Detection of cilia (acetylated tubulin staining)
Experimental: Supplementary Figure S6 (related to Figure 5). Characterization of compound 7l (Rhonin).
(a) GLI-responsive reporter gene assay in SHH-LIGHT2 cells. (b) Influence of Rhonin on the expression of Alpl. C3H10T1/2 cells were treated with 1.5 µM purmorphamine and the compounds for 96 h prior to RT-qPCR to detect Alpl mRNA levels. Data were normalzed to Gapdh and Ap3d1 gene levels and are mean values (n = 3) ± SD. (c) Detection of cilia in NIH/3T3 cells. NIH/3T3 cells were cultured in serum reduced (0.5 % FCS) medium for 24 h to induce cilia formation, followed by a pre-treatment of cells with different concentrations of 7l or Vismodegib or DMSO as a control in serum reduced medium. After another 24h cells were treated with 2 µM purmorphamine or DMSO as a control and with different concentrations of 7l, or Vismodegib or DMSO as a control for 24 h. […]
cilia were stained with an antibody against acetylated tubulin. SMO was marked with an anti-SMO antibody and DAPI was used to stain the nuclei. For quantification of cilia, at least 100 cilia per condition and biological replicate were analyzed for the intensity of anti-acetylated tubulin antibody staining. […] Statistical significance was evaluated using an unpaired t-test with a confidence interval of 95 % (p ≤ n.s.). […]

HEK293T cells = test: Cell fractionation: distribution of RHO GTPases; conditions: 10 μM
Experimental: centrifugation for 20 min in 20000 x g, supernatants were collected and loaded on a Ni-NTA column (Qiagen, Hilden, Germany). The protein was eluted by passing a buffer containing 300 mM imidazole into the Ni-NTA column. The eluted solution was further purified on an analytical Superdex 75 column (10/300 GL, GE-Healthcare, Uppsala, Sweden) using 20 mM HEPES-NaOH pH 7.4, 150 mM NaCl, 3 mM DTT, 5 mM MgCl2 and 0.5% (w/v) Na-cholate as buffer system. Non-prenylated RAC1 and human RHOGDI1 were prepared from E. coli as a GST recombinant protein as described previously.6
For expression of GST-PDEδ, E. coli RosettaTM2 cells transformed with PDE6D expression plasmid (pGex4T5) were inoculated in TB medium containing 100 μg/ml ampicillin and 30 μg/ml chloramphenicol to a total volume of 10 L. The protein expression in E. coli was induced with 0.2 mM IPTG at OD600 = 1.33. Cells were cultivated overnight at 18 ° C with shaking.
Cells then were pelleted by centrifugation at 4000xg for 20 min at 4 ° C and stored at -20 ° C. […]
NIH/3T3 cells were seeded in a 96 plate (10,000 cell per well/ plate name: Essen Bioscience NO 4379). […] Cell migration was monitored using IncuCyte ZOOM for a period of 48 h. The images were analyzed by the Incucyte Scratch Wound Analysis Software. […]

RHO GTPases = test: Immunoblotting of total cellular RHO GTPase levels; conditions: 10 μM, 24 h

COC(=O)C1(C(CC(=O)c2cccnc2)c2ccccc2)N=C(c2ccc(Br)cc2)C2C(=O)N(C)C(=O)C21 (stereo not drawn) [7l]
Cilia formation (in words) (NIH/3T3 cells): cilia formation was not affected | Subcellular localization of membrane-bound RHO GTPases (in words) (HEK293T cells): from the plasma membrane to the endoplasmic reticulum (ER) membrane | Total levels of the three RHO GTPases (in words) (RHO GTPases): did not alter the total levels

From publication PMC9313812, “The Pseudo‐Natural Product Rhonin Targets RHOGDI” (Angewandte Chemie (International Ed. in English), 2022)
